US10172837B2, “Insulin sensitisers and methods of treatment” (NAIA Metabolic, Inc., priority 2007, dated 2019)

Legend:
[1] = tested on: Diet-Induced Obese (DIO) Mice; assay: ipGTT (glucose tolerance) in diet-induced obese mice; assay type: in vivo, Mus Musculus
[2] = tested on: 3T3-L1 adipocytes; assay: 2-Deoxyglucose uptake by 3T3-L1 adipocytes; assay type: cell-based; conditions: for 2-Deoxyglucose uptake (Normalised: Vehicle with no insulin = 100%): DCP 10 μM
Procedure: Dichlorphenamide was added during serum-starvation. […] Insulin at 0, 0.5 and 10 nM was added for 20 min at 37° C. Uptake of 50 μM 2-deoxy glucose and 0.5 μCi 2-deoxy-[U-^3H] glucose (NEN, PerkinElmer Life Sciences) per well was measured over the final 10 min of insulin stimulation. […] Counts per minute (cpm) were measured by scintillator counter. […] The data is expressed as a mean±SEM. The statistical analysis was performed using an umpaired t-test (2-tailed).

[3] = tested on: Diet-Induced Obese (DIO) Mice; assay: Fasting plasma glucose in diet-induced obese mice; assay type: in vivo, Mus Musculus
[4] = tested on: obese Psammomys obesus (Israeli sand rats); assay: Oral glucose tolerance test in obese Psammomys obesus; assay type: in vivo
From the text: The outbred Israeli sand rat, Psammomys obesus is a unique animal model for the study of obesity and diabetes. When housed under standard laboratory conditions, a proportion of Israeli sand rats become obese and develop type 2 diabetes spontaneously, without requiring high caloric feeding like the diet-induced obese mouse model, or as a consequence of a mutation in a particular gene as in the db/db mouse model. In this regard their evolution into a diabetic state closely resembles the environmental and polygenic human condition. Type 2 diabetic P. obesus are also profoundly insulin resistant, as measured by the area under the blood glucose curve during an oral glucose tolerance test (OGTT). In addition, a proportion of the animals remain lean and healthy under these same conditions, while others develop a range of intermediate phenotypes. This response is similar to that seen in human populations. Diabetic P. obesus are characterised by having elevated blood glucose levels. […] USA). […] Glucose was measured in whole blood using a YSI glucose analyser (Model #2300 STAT PLUS, Yellow Springs Instruments Co., Ohio, USA). The instrument takes a sample aliquot of 25 μl and is calibrated every 10 samples using 5.55 and 8.33 mmol/L glucose standards. The analyser utilises a probe fitted with a 3-layer membrane containing an immobilised enzyme. J3-D-glucose is oxidised by glucose oxidase, which is immobilised on a polycarbonate cellulose membrane, to form glucono-( )-lactone and hydrogen peroxide. The hydrogen peroxide in turn, is oxidised at the platinum anode, producing electrons. The electron flow is linearly proportional to the steady state hydrogen peroxide concentration and therefore to the concentration of glucose in the sample. Insulin levels were measured in plasma obtained after the […] heparin-coated tubes. Plasma insulin concentrations were determined using a commercially-available double antibody radio-immunoassay (RIA) kit. (Linco Research Inc., USA). […] Solutions were then incubated for 2 hours before adding 1 ml of sheep anti-guinea pig antibody (second antibody) and left to incubate again for 30 min at room temperature. Bound and free insulin were then separated by centrifugation at 3,500 g for 20 min (Beckman Centrifuge Model J6B, Beckman Instruments, […], Australia), leaving the bound insulin in a pellet at the bottom of the tube following aspiration of each sample. A gamma counter (Minaxi g Auto-gamma 5000 series. Packard Instrument Company, IL, USA) with a counting time of 1 min was then used to measure the radioactivity of the solid phase pellet.

[5] = tested on: db/db mice; assay: Fasting plasma glucose in db/db mice; assay type: in vivo, Mus Musculus; conditions: for FPG Day 0: Methazolamide 20 mg/kg group
From the text: The db/db mouse model comprises mice with a homozygous mutation of the leptin receptor gene that ablates leptin signalling in the hypothalamus and elsewhere. The db/db mouse model is commonly used to study the genetic and physiological mechanisms of obesity and type II diabetes. […] Leptin acts through the leptin receptor to control whole-body energy homeostasis by regulating both appetite and energy expenditure. Loss of function of the leptin receptor gene results in hyperphagia and slower metabolism, leading to obesity and eventually diabetes. […] Dosing solutions of the test articles: Methazolamide, Metformin and Methazolamide/Metformin were prepared fresh on each dosing day and stored at room temperature, protected from light. The compound was formulated in sterile vehicle: […] Stock solutions were prepared by dissolving the compound in NMP:PEG300 (1:2, v/v). Saline was added to the stock solution prior to administration of the compound. The solutions were mixed by vortexing immediately prior to dosing to ensure a homogeneous suspension of the compound. Male C57Bl/6J db/db mice were obtained at 10 weeks of age from Animal Resources Centre ([…], Western Australia). Animals were individually housed and allowed free movement and ad libitum access to water and food. Animals were maintained on a 12 hour light (6 am-6 pm) and 12 hour dark (6 pm-6 am) cycle. Animals were monitored daily. Body weight, food and water intake were recorded 3 times a week. Mice were fed a standard chow diet, and used after a two week acclimatisation period. […] The fasting plasma glucose levels of the animals was tested prior to commencement of the study and then every 3-4 days during dosing. The animals were fasted for a period of 4 hours after dosing and prior to the taking of a blood sample via a tail nick. Blood glucose levels were monitored using commercially available glucometers (Accuchek Advantage, Roche) based on the electric current generated when a blood drop is spotted on a test strip resulting in conversion of the glucose present in the sample to gluconolactone by the glucose dehydrogenase enzyme, in the presence of the coenzyme (PQQ).

[6] = Body weight of treated diet-induced obese mice; assay type: in vivo, Mus Musculus; conditions: Day 0 or Day 13, DIO mice
Procedure: (§1) Male C57Bl/6J mice were obtained at 8 weeks of age from Animal Resources Centre (Canning Vale, Western Australia). Animals were individually housed and allowed free movement and ad libitum access to water and food. Animals were maintained on a 12 hour light (6 am-6 pm) and 12 hour dark (6 pm-6 am) cycle. Animals were monitored daily. Body weight, food and water intake were recorded 3 times a week.

[7] = Body weight of treated db/db mice; assay type: in vivo, Mus Musculus; conditions: Day 0, Day 8 or Day 18, db/db mice
Procedure: as §1, with “C57Bl/6J db/db” for “C57Bl/6J”, “10” for “8”, “([…],” for “(Canning Vale,”, “week. Mice were fed a standard chow diet, and used after a two week acclimatisation period.” for “week.”

[8] = Dichlorphenamide 50 mg/kg oral gavage
[9] = dichlorphenamide 20 mg/kg oral gavage
[10] = 20 mg/Kg DCP oral gavage, 0 min after glucose gavage
[11] = 20 mg/Kg DCP oral gavage, 15 min after glucose gavage
[12] = 20 mg/Kg DCP oral gavage, 30 min after glucose gavage
[13] = 20 mg/Kg DCP oral gavage, 45 min after glucose gavage
[14] = 20 mg/Kg DCP oral gavage, 60 min after glucose gavage
[15] = 20 mg/Kg DCP oral gavage, 90 min after glucose gavage
[16] = Methazolamide 20 mg/kg oral gavage
[17] = Methazolamide 10 mg/kg oral gavage (Table 5-2)
[18] = Methazolamide 10 mg/kg oral gavage (Table 8-2)
[19] = Methazolamide 20 mg/kg group, before dosing
[20] = Methazolamide 50 mg/kg group, before dosing
[21] = Methazolamide 50 mg/kg oral gavage
[22] = Methazolamide 100 mg/kg group, before dosing
[23] = Methazolamide 100 mg/kg oral gavage
[24] = Methazolamide 10 mg/kg oral gavage (Table 5-1)
[25] = Methazolamide 10 mg/kg oral gavage (Table 8-1)

NS(=O)(=O)c1cc(Cl)c(Cl)c(S(N)(=O)=O)c1 [Dichlorphenamide]
effect on glucose tolerance of diet-induced obese mice [1]: improves the glucose tolerance | AUC Day −1 ([1]; Dichlorphenamide 20 mg/kg group, before dosing, in mM·min): 1350 ± 56 | AUC Day 19 ([1]; Dichlorphenamide 20 mg/kg oral gavage, in mM·min): 832 ± 80 | AUC Day −1 ([1]; Dichlorphenamide 50 mg/kg group, before dosing, in mM·min): 1345 ± 73 | AUC Day 19 Treat vs Veh [1, 8]: −8% | Delta AUC Day 19 vs Day −1 [1, 8]: −32%^1 | AUC Day 19 ([1]; Dichlorphenamide 50 mg/kg oral gavage, in mM·min): 908 ± 38 | AUC Day 19 Treat vs Veh [1, 9]: −16% | Delta AUC Day 19 vs Day −1 [1, 9]: −38%^2 | 2-Deoxyglucose uptake (Normalised: Vehicle with no insulin = 100%) ([2]; 0.5 nM Insulin): 1468 ± 400^2% | 2-Deoxyglucose uptake (Normalised: Vehicle with no insulin = 100%) ([2]; 10 nM Insulin): 1826 ± 97 ^ % | 2-Deoxyglucose uptake (Normalised: Vehicle with no insulin = 100%) ([2]; no insulin (basal)): 508 ± 57^1% | effect on basal and insulin stimulated 2-deoxyglucose uptake ([2]; basal, 0.5 nM and 10 nM insulin): enhanced | effect on fasting plasma glucose levels of diet-induced obese mice [3]: reduced the fasting plasma glucose levels | FPG Day −1 ([3]; dichlorphenamide 20 mg/kg group, before dosing): 10.05 ± 0.2 mM | Delta FPG Treatment Day 14 vs Day −1 [3, 9]: −17%^1 | Delta FPG Treatment vs Vehicle Day 14 [3, 9]: −11%^2 | FPG Day 14 [3, 9]: 8.35 ± 0.2 mM | Plasma Glucose [4, 10]: 3.4 ± 0.2 mM | Plasma Insulin [4, 10]: 48 ± 15 mU/ml | Plasma Glucose [4, 11]: 5.4 ± 0.2 mM | Plasma Insulin [4, 11]: 141 ± 21 mU/ml | Plasma Glucose [4, 12]: 4.7 ± 0.4 mM | Plasma Insulin [4, 12]: 149 ± 49 mU/ml | Plasma Glucose [4, 13]: 5.1 ± 0.3 mM | Plasma Insulin [4, 13]: 123 ± 39 mU/ml | Plasma Glucose [4, 14]: 4.7 ± 0.4 mM | Plasma Insulin [4, 14]: 202 ± 46 mU/ml | Plasma Glucose [4, 15]: 4.3 ± 0.4 mM | Plasma Insulin [4, 15]: 117 ± 22 mU/ml | Plasma Glucose AUC ([4]; 20 mg/Kg DCP oral gavage, OGTT 0-90 min): 119 ± 16 mM·min | Plasma Insulin AUC ([4]; 20 mg/Kg DCP oral gavage, OGTT 0-90 min, listed as head prints (mM · min)): 8,548 ± 2441 | effect on glucose tolerance in oral glucose tolerance test ([4]; area under plasma glucose and plasma insulin curve): increased the glucose tolerance

CC(=O)/N=c1\sc(S(N)(=O)=O)nn1C [Methazolamide, 5-acetylimino-4-methyl-Δ^2-1,3,4-thiadiazoline-2-sulfonamide]
FPG Day 0 ([5]; before dosing (Table 9-1)): 23.93 ± 1.6 mM | FPG Day 0 ([5]; before dosing (Table 9-2)): 23.93 ± 1.6 mM | Delta FPG Treatment Day 8 vs Day 0 [5, 16]: −32%^1 | Delta FPG Treatment Day 18 vs Day 0 [5, 16]: −29%^1 | FPG Day 8 [5, 16]: 16.30 ± 1.8 mM | FPG Day 18 [5, 16]: 17.00 ± 2.5 mM | FPG Treatment vs Vehicle Day 8 [5, 16]: −30%^4 | FPG Treatment vs Vehicle Day 18 [5, 16]: −38%^3 | effect on fasting plasma glucose levels of db/db mice ([5]; after 8 days of treatment): reduced the fasting plasma glucose levels | effect on fasting plasma glucose levels of db/db mice ([5]; after 18 days of treatment): reduced the fasting plasma glucose levels | effect on glucose tolerance of diet-induced obese mice [1]: increased the glucose tolerance | AUC Day −1 ([1]; Methazolamide 10 mg/kg group, before dosing (Table 5-2)): 1038 ± 129 mM·min | AUC Day −1 ([1]; Methazolamide 10 mg/kg group, before dosing (Table 8-2)): 1190 ± 62 mM·min | AUC Day 13 [1, 17]: 901 ± 139 mM·min | Delta AUC Treatment Day 13 vs Day −1 [1, 17]: −13%^ | Delta AUC Treatment vs Vehicle Day 13 [1, 17]: −8% | AUC Day 13 [1, 18]: 1131 ± 95 mM·min | AUC Day 13 Treat vs Veh [1, 18]: −6% | Delta AUC Day 13 vs Day −1 [1, 18]: −5% | AUC Day −1 [1, 19]: 1070 ± 77 mM·min | AUC Day 13 [1, 16]: 619 ± 106 mM·min | Delta AUC Treatment Day 13 vs Day −1 [1, 16]: −42%^1 | Delta AUC Treatment vs Vehicle Day 13 [1, 16]: −37%^1 | AUC Day −1 [1, 20]: 1073 ± 112 mM·min | AUC Day 13 [1, 21]: 710 ± 87 mM·min | Delta AUC Treatment Day 13 vs Day −1 [1, 21]: −34%^1 | Delta AUC Treatment vs Vehicle Day 13 [1, 21]: −27%^1 | AUC Day −1 [1, 22]: 1080 ± 59 mM·min | AUC Day 13 [1, 23]: 691 ± 60 mM·min | Delta AUC Treatment Day 13 vs Day −1 [1, 23]: −36%^2 | Delta AUC Treatment vs Vehicle Day 13 [1, 23]: −29%^1 | effect on fasting plasma glucose levels of diet-induced obese mice [3]: reduced the fasting plasma glucose levels | FPG Day −1 ([3]; Methazolamide 10 mg/kg group, before dosing (Table 5-1)): 6.92 ± 0.55 mM | FPG Day −1 ([3]; Methazolamide 10 mg/kg group, before dosing (Table 8-1)): 6.1 ± 0.5 mM | Delta FPG Treatment Day 13 vs Day −1 [3, 24]: 12% | FPG Day 13 [3, 24]: 7.75 ± 0.43 mM | FPG Treatment vs Vehicle Day 13 [3, 24]: 1% | Delta FPG Treatment Day 13 vs Day −1 [3, 25]: 8% | Delta FPG Treatment vs Vehicle Day 13 [3, 25]: −12% | FPG Day 13 [3, 25]: 6.6 ± 0.4 mM | FPG Day −1 [3, 19]: 7.28 ± 0.47 mM | Delta FPG Treatment Day 13 vs Day −1 [3, 16]: −5% | FPG Day 13 [3, 16]: 6.90 ± 0.24 mM | FPG Treatment vs Vehicle Day 13 [3, 16]: −10%^ | FPG Day −1 [3, 20]: 7.20 ± 0.71 mM | Delta FPG Treatment Day 13 vs Day −1 [3, 21]: −13% | FPG Day 13 [3, 21]: 6.28 ± 0.31 mM | FPG Treatment vs Vehicle Day 13 [3, 21]: −18%^1 | FPG Day −1 [3, 22]: 7.63 ± 0.55 mM | Delta FPG Treatment Day 13 vs Day −1 [3, 23]: −21% | FPG Day 13 [3, 23]: 6.05 ± 0.15 mM | FPG Treatment vs Vehicle Day 13 [3, 23]: −21%^2 | difference in body weight between treated groups [6]: no difference in body weight | difference in body weight vs Vehicle group [7]: no difference in body weight
